Measurements: patent US20190212343A1, “METHODS FOR THE TREATMENT OF DISORDERS RELATED TO PHOSPHORYLATION OF HISTONES” (H. LEE MOFFITT CANCER CENTER AND RESEARCH INSTITUTE, INC., priority 2014, published 2019)
Residues, ends and D or L forms follow the SMILES beside them. *: point of attachment. Cbz = O=C(OCc1ccccc1)*

Experiments:
[1] = tested on: AR mRNA; assay: AR mRNA levels in androgen-deprived prostate cancer cells (qPCR with AR primers); type: cell-based, human; conditions: androgen-deprived LAPC4 and LNCaP cells, overnight treatment
[2] = tested on: H4 Y88-phosphorylation (ACK1); assay: Endogenous H4 pY88-phosphorylation in LNCaP cells (pY88-H4 immunoprecipitation / H4 immunoblot); type: cell-based, human; conditions: 16 hrs
Method: FIGS. 9A-9E show ACK1 phosphorylates histone H4 at Tyrosine 88. (FIG. 9A) peptide were spotted followed by immunoblotting with indicated antibodies. (FIG. 9B) Equimolar amounts of purified ACK1 and H4 proteins were incubated in the presence of AIM-100 (100 nM) and reaction subjected to immunoblotting with pTyr antibodies. (FIG. 9C) In vitro kinase assay performed using purified ACK1 and H4, followed by immunoblotting with pY88-H4 antibodies. (FIG. 9D) H4 Y88-phosphorylation in vivo. LNCaP cells were treated with DZI-067, AIM-100 or Enzalutamide (7 uM, 16 hrs). The nuclear lysates were immunoprecipitated with pY88-H4 antibodies followed by immunoblotting with H4. Lower panel is input lysate. (FIG. 9E) LNCaP cells were treated with Crizotinib (1 uM, 16 hrs). The cell lysates were immunoprecipitated with pY88-H4 antibodies followed by immunoblotting with H4 (upper panel).
To explore the sensitivity of endogenous H4 pY88-phosphorylation to ACK1 inhibitor, LNCaP cells were treated with DZI-067, AIM-100 or Enzalutamide.
Applicant also assessed the sensitivity of endogenous H4 pY88-phosphorylation to small molecule inhibitor, Crizotinib, also known as Xalkori (Pfizer). […] It is approved for treatment of some non-small cell lung carcinoma (NSCLC).

[3] = tested on: CRPC patients; conditions: cited from earlier work
[4] = tested on: PSA mRNA; assay: PSA mRNA levels in androgen-deprived prostate cancer cells (qPCR with PSA primers); type: cell-based, human; conditions: overnight treatment
Method: (FIG. 7A) VCaP and (FIG. 7B) LNCaP cells were grown in absence of androgen and were overnight treated with DZI-067 (7 uM in VCaP, 2.5 & 5 uM in LnCaP), AIM-100 (7 uM), PLX4032 (7 uM), Casodex, Enzalutamide (10 uM) and DHT (10 nM, 3 Hr). Total RNA was isolated followed by qPCR with AR primers. VCaP, *p=0.022, **p=0.018; LNCaP, *p=0.042, **p=0.047, ***p=0.029. (FIG. 7C) VCaP and (FIG. 7D) LNCaP cells were grown in absence of androgen and were overnight treated with DZ1-067 (7 uM in LAPC4, 2.5 & 5 uM in LnCaP), AIM-100 (7 uM), PLX4032 (7 uM), Casodex, Enzalutamide (10 uM) and DHT (10 nM, 3 Hr). Total RNA was isolated followed by qPCR with PSA primers.

[5] = tested on: IDH2 transcript; assay: Epigenetic marks and IDH2 transcript levels in melanoma cancer cells; type: cell-based, human
[6] = tested on: WEE1 expressing cancer cell lines; conditions: cited from earlier work
[7] = tested on: WEE1; conditions: yeast and mammalian cells; cited from earlier work
[8] = tested on: AR protein levels; assay: AR protein levels in androgen deprived prostate cancer cells (immunoblotting); type: cell-based, human; conditions: LNCaP cells, MG 132 10 uM 6 hr, in presence or absence of AIM-100
Method: (FIG. 6A) Androgen starved LAPC4 cells were treated with DHT (10 nM, 16 Hrs), AIM-100, DZI-067, Enzalutamide or PLX4032 (7 uM, 36 Hr) and AR, pACK1 and Actin levels were determined by immunoblotting (IB). The relative level of AR is shown below. (FIG. 6B) Androgen deprived LNCaP and VCaP cell were untreated or treated with 2.5, 5 and 10 uM of AIM-100 and lysates were immunoblotted. The quantitation of AR expression is shown. (FIG. 6C) Androgen deprived LNCaP and VCaP cell were untreated or treated with 2.5, 5 and 10 uM of DZI-067 and lysates were immunoblotted. The quantitation of AR expression is shown. (FIG. 6D) LNCaP cells were transfected with control and Ack1 siRNAs followed by immunoblotting. (FIG. 6E) LNCaP cells treated with AIM-100 (7 uM, 16 hr) or MG 132 (10 uM, 6 hr) were immunoblotted with AR antibodies. […]
AR has been known to interact with an ubiquitin E3 ligase, RNF6, causing AR ubiquitination, which in turn promoted AR transcriptional activity (Xu, K. et al. (2009) Cancer Cell 15(4):270-282). To determine whether post-translational modification has role to play in suppression of AR levels upon Ack1 kinase inhibition, LNCaP cells were treated with proteosomal inhibitor, MG-132 and AR levels were measured in presence or absence of AIM-100.

CCCS(=O)(=O)Nc1ccc(F)c(C(=O)c2c[nH]c3ncc(-c4ccc(Cl)cc4)cc23)c1F [PLX4032]
AR mRNA levels [1]: no significant change in AR mRNA levels

C[C@@H](Oc1cc(-c2cnn(C3CCNCC3)c2)cnc1N)c1c(Cl)ccc(F)c1Cl [Crizotinib]
endogenous pY88-phosphorylation of H4 ([2]; 1 uM): significant loss of endogenous pY88-phosphorylation of H4

CNC(=O)c1ccc(N2C(=S)N(c3ccc(C#N)c(C(F)(F)F)c3)C(=O)C2(C)C)cc1F [Enzalutamide]
endogenous pY88-phosphorylation of H4 ([2]; 7 uM): unaffected | CRPC patients in whom treatment is effective [3]: 12 out of 30 | overall survival advantage [3]: 4-6 months | time to relapse of the most responding patients [3]: ≤ 2 years | AR mRNA levels [1]: no significant change in AR mRNA levels | PSA mRNA levels [4]: significantly suppressed PSA mRNA levels

C[C@]12CCC(=O)C[C@@H]1CC[C@@H]1[C@@H]2CC[C@]2(C)[C@@H](O)CC[C@@H]12 [DHT, dihydrotestosterone]
endogenous pY88-phosphorylation of H4 ([2]; 7 uM): unaffected | AR mRNA levels [1]: no significant change in AR mRNA levels

CC(O)(CS(=O)(=O)c1ccc(F)cc1)C(=O)Nc1ccc(C#N)c(C(F)(F)F)c1 (stereo not drawn) [Casodex]
AR mRNA levels [1]: no significant change in AR mRNA levels | PSA mRNA levels [4]: significantly suppressed PSA mRNA levels

C=CCn1c(=O)c2cnc(Nc3ccc(N4CCN(C)CC4)cc3)nc2n1-c1cccc(C(C)(C)O)n1 [MK-1775]
IDH2 transcript levels [5]: increasing IDH2 transcript levels | WEE1 epigenetic marks [5]: reversed epigenetic marks | apoptosis [6]: selectively induces apoptosis | WEE1 epigenetic activity [7]: inhibited WEE1 epigenetic activity | histone transcriptional suppression [7]: robustly reversed histone transcriptional suppression

CC(C)C[C@@H](C=O)NC(=O)[C@H](CC(C)C)NC(=O)[C@H](CC(C)C)NC(=O)OCc1ccccc1 [MG-132] (Cbz-Leu-Leu-Leu-aldehyde)
loss of AR caused by Ack1 kinase inhibition [8]: did not prevent loss of AR
